The values that follow come from patent US20160158245A1, “PHARMACEUTICAL FORMULATION CONTAINING THIENOTRIAZOLODIAZEPINE COMPOUNDS” (ONCOETHIX GmbH, priority 2013, published 2016).

Format in all cases: cell-based
The test system of one experiment is c-MYC in Jurkat. The experiment is described as follows: Immunoblot (protein level) in Jurkat. The settings on record: 500 nM, 48 h and 72 h. As to the method: FIGS. 43A-43L illustrate effects of OTX015 at the protein level for BRD 4, BRD2 and BRD 3 as well as c-MYC. […] AML cell lines HL60, K562 (FIGS. 43A-43C; FIG. 43D-43F) and ALL cell lines Jurkat and RS4-11 (FIG. 43G-43I; FIG. 4JD-43L) were treated with OTX015 at 500 nM and compared to controls exposed to according DMSO. At indicated time-points proteins were extracted and immunoblotted with BRD4, BRD3, BRD2 or c-MYC antibodies after gel electrophoresis. […] One representative experiment out of three is shown.
The membranes were blocked with LiCor blocking buffer (LiCor, Lincoln, Nebr., USA) and incubated with the respective primary antibody: anti-BRD4 (Epitomics 5716-1, Burlingame, USA), anti-BRD3 (ab56342, AbCam, UK), anti-BRD2 (ab37633, AbCam, UK), anti c-MYC (sc-764 (N262), Santa Cruz, USA) and anti-GAPDH (Invitrogen 398600, Grand Island, USA). Blots were stained with either goat anti-rabbit InfraRedDye 680RD or goat anti-mouse InfraRedDye 800CWsecondary antibody (LiCor). Membranes were imaged using a LiCor Odyssey scanner. Boxes were manually placed around each band of interest, which returned near-infrared fluorescent values of raw intensity with intra-lane background subtracted using Odyssey 3.0 analytical software (LiCor).
In general terms: In western blotting, separated proteins are transferred to a membrane and probed.

In experiment [1] the test system is ALL cell lines (Jurkat, RS 4-11, TOM-1) and AML cell lines (HL60, K562, KG1 and KG1a). The experiment is described as follows: Apoptosis assessment, statements over the ALL and AML cell lines. How it is done:
a total of 1×10^6 cellsderived from patients or cell lines were resuspended in 1 mL culture medium and incubated with the indicated dosages of OTX015 prepared freshly from 1 mM stock solution in DMSO. Control cells were incubated with the corresponding amount of dimethyl sulfoxide (DMSO 0.2-1%) to exclude toxicity of the excipient. Apoptotic cells were detected by cytofluorometric analysis using a FACScan (Becton Dickinson, Mountain View, USA). Cells were stained with propidium iodide (PI; 5 μg/mL; Becton Dickinson) and concomitantly for 15 minutes at RT with annexin-V-FITC (Becton Dickinson) according to the manufacturer's instructions to determine outer membrane phosphatidyl serine exposure. Data were analyzed with the Flowjo (Tree Star Inc., Ashland, USA) flow cytometry software.
Compound (1-1) induced apoptosis in three ALL cell lines (Jurkat, RS 4-11, TOM-1) and four AML cell lines (HL60, K562, KG1 and KG1a) that were treated with different doses of the drug as detected by outer membrane phosphatidylserine exposure and propidium iodide incorporation at different time points (FIGS. 13A-13C and FIGS. 14A-14D). […] In all other cell lines, 50% of cells became apoptotic within 12 to 24 hours after treatment with 100 nM of Compound (1-1).

The test system of a further experiment is KG1a. As to the kind of experiment: MTT assay. The note with it: Homo sapiens, KG-1a, MTT at 72 h. How it is done:
(§1) Different representative cell lines for ALL including Jurkat cells (T-ALL), RS 4-11 (MLL-AF4 B-precursor ALL), TO′M-1, BV173 (both Ph+ALL) and AML including K562 (Ph+CML in blast crisis,), HL-60 (NRAS driven AML2), NOMO1 (MLL-AF9 driven AML), KG1 (BMP-FGRF+AML6) and its more immature subtype KG1a were cultured in RPMI 1640 (Gibco Invitrogen, Basel, Switzerland) supplemented with 10% or 20% heat-inactivated fetal calf serum respectively, 2 mM L-glutamine, 100 IU/mL penicillin, and 100 µg/mL streptomycin.
(§2) MTT-assay: cells were seeded first into 24-well plates at the density of […] per well to avoid variations of concentrations in smaller volumes and treated with different doses of OTX015 prepared freshly from 1 mM stock solution in DMSO. Cells were transferred to 96-well plates for MTT-assay. Untreated cells and cells treated with equal amounts of DMSO (0.2-1%) used for dilution of OTX015 were used as controls. The 3-(4,5-dimethylthiazol-2-yl)-2,5-diphenyltetrazolium bromide (MTT) (Molecular Probes, Eugene, USA) was prepared as a stock of 5 mg/ml in PBS. 0.5 mg/mL of MTT solution was then added per well and incubated in the dark at 37° C. for 4 h. Cells were then lysed with 25% SDS lysis buffer and absorbance was read at 570 nm. Two independent experiments were run for each cell line. GI50 values were calculated with Prism v5 software (GraphPad Inc., La Jolla, USA).
(§3) AML and ALL cell lines were exposed to increasing concentrations of compound (1-1), (0.1 nM-10 μM). […] GI50 values were expressed as means from 3 independent experiments.
On the technique in general: Tetrazolium assays rely on reduction of a dye to a coloured formazan, in cell work by metabolically active cells.

The test system of another experiment is KG1. As to the kind of experiment: MTT assay. The note with it: Homo sapiens, KG-1; KG1, MTT at 72 h. As to the method:
as §1, §2, §3

The subject of the next experiment is TOM-1. The experiment is described as follows: MTT assay. The note with it: TOM-1, MTT at 72 h. As to the method:
as §1, §2, §3

The next experiment deals with K562. As to the kind of experiment: MTT assay. The note with it: Homo sapiens, K562, 72 h, K562, MTT at 72 h. How it is done: as §1, §2, §3
A further experiment relates to Jurkat. The experiment is described as follows: MTT assay. The note with it: Homo sapiens, MTT at 72 h. As to the method: as §1, §2, §3
The subject of a further experiment is NOMO1. As to the kind of experiment: MTT assay. The note with it: Homo sapiens, NOMO-1; NOMO1, MTT at 72 h. As to the method: as §1, §2, §3
The subject of the next experiment is RS4-11. The experiment is described as follows: MTT assay. The note with it: Homo sapiens; RS4-11, MTT at 72 h. How it is done:
as §1, §2, §3

For a further experiment, the system named is BV-173. The experiment is described as follows: MTT assay. The settings on record: Homo sapiens; BV-173, MTT at 72 h. How it is done: as §1, §2, §3
For the next experiment, the system named is HL60. The experiment is described as follows: MTT assay. The settings on record: Homo sapiens, HL-60, HL60, MTT at 72 h. How it is done: as §1, §2, §3
For the next experiment, the system named is ALL and AML cell lines. As to the kind of experiment: Cell cycle analysis (PI flow cytometry). As to the method: For conventional cell-cycle analysis, 1×10^6 cells were harvested, washed in PBS, and fixed in 70% ice cold ethanol. Cells were incubated with 100 μg/mL RNAse (Sigma, Saint-Quentin Fallavier, France) and stained with PI (25 μg/mL, Becton Dickinson) followed by an incubation period of 30 minutes at 37° C. Subsequently, cell-cycle distribution was determined by cytofluorometric analysis. Data were analyzed with the Flowjo (Tree Star Inc., Ashland, USA) flow cytometry software.
Background: Flow cytometry measures light scatter and fluorescence of single cells or particles in a stream.

The structures appear in SMILES notation.

Usually GI50 stands for the concentration at which growth is held to half of that of the control. A higher GI50 goes with lower sensitivity of the cells. `Cc1sc2c(c1C)C(c1ccc(Cl)cc1)=N[C@@H](CC(=O)Nc1ccc(O)cc1)c1nnc(C)n1-2` [Compound (1-1), 2-[(6S)-4-(4-chlorophenyl)-2,3,9-trimethyl-6H-thienol[3,2-f]-[1,2,4]triazolo[4,3-a][1,4]diazepin-6-yl]-N-(4-hydroxyphenyl)acetamide dihydrate]: the c-MYC protein level entry in the experiment with c-MYC in Jurkat is reported as “c-MYC downregulation”. The “percentage of apoptotic cells” value in experiment [1] (100 nM, within 12 to 24 hours, all cell lines other than K562 and KG1a) is reported as 50%. Moreover, the “induction of apoptosis, dose dependence” value in experiment [1] (72 h, KG1a, NOMO1, RS4-11, BV-173, Jurkat, TOM-1) was “dose-dependent manner”. Further, in experiment [1] (different doses and time points), the induction of apoptosis entry is “induced apoptosis in all cell lines tested but to a lesser extent in K562 and KG1a cells”. Besides, the GI50 came to 1340 nM with KG1a; 198 nM in the experiment on KG1; 133 nM with TOM-1; 11300 nM in the experiment with K562; 11300 nM in the experiment on K562 (mean of 3 independent experiments); 250 nM in the experiment on Jurkat. In addition, the GI50 in the experiment with NOMO1 turned out to be 229 nM; with RS4-11, 34.2 nM; in the experiment on BV-173, 161 nM; with HL60, 1310 nM. For the same compound, the IC50 in the experiment on KG1a (read-out: GI value) and with HL60 (read-out: GI value) was 1300 nM in each case. Also, the S phase fraction entry in the experiment with ALL and AML cell lines (48 h, AML and ALL cell lines) is “decreased S phase fraction in almost all cell lines”. Further, the cell cycle arrest entry in the experiment with ALL and AML cell lines (all cell lines) is on record as “induced cell cycle arrest in all cell lines”.
